Reference: ChEMBL document CHEMBL5441381, “ASAP - In vitro antiviral effect” (2024)
Where “and” joins values, the source holds several entries; their conditions need not be identical. Identical values can stand only once.

Tests used:
SARS-CoV-2 [1] = assay: (§1) Functional immunofluorescence assay to measure dose dependent changes in antiviral-drug inhibitory efficacy against hCoV-19/USA-WA1/2020 in iPSC-Pneumocyte cells which are seeded prior to treatment, then infected with hCoV-19/USA-WA1/2020. Cells are fixed with 10 % formaldehyde, washed with PBS, permeabilized with permeabilization buffer, then washed with wash buffer. The cells are incubated with nucleoprotein primary antibody IC7C7. Following primary staining, cells are washed with wash buffer and incubated in a solution of with Alexa fluor 488 and DAPI. Infected and uninfected cells are visualized and analyzed by Gen5 software. The assay has been performed by Icahn School of Medicine at Mount Sinai.; type: organism-based, Homo sapiens
SARS-CoV-2 [2] = assay: as §1, with “hCoV-19/USA-WA1/2020 in HeLa-ACE2 cells which” for “hCoV-19/USA-WA1/2020 in iPSC-Pneumocyte cells which”, “prior to drug treatment, then” for “prior to treatment, then”; type: organism-based, Homo sapiens
[3] = tested on: Middle East respiratory syndrome-related coronavirus; assay: microbe, parasite or virus in culture; type: functional, organism-based, Chlorocebus sabaeus, VeroE6/TMPRSS2
[4] = Severe acute respiratory syndrome coronavirus 2, Pneumocyte
[5] = Severe acute respiratory syndrome coronavirus 2, HeLa-ACE2
[6] = Middle East respiratory syndrome-related coronavirus, VeroE6/TMPRSS2

SMILES: CC(C)[C@@H](Nc1ncnc2[nH]ccc12)c1ccc2c(c1)S(=O)(=O)CCC2
- EC50 (SARS-CoV-2 [1]; [4]): > 50 µM
- EC90 (SARS-CoV-2 [1]; Severe acute respiratory syndrome coronavirus 2, Pneumocyte, Baseline response 0 %, Hill slope -1.893, Maximum measured 187.741 %, Maximum response 100 %, Minimum measured 35.01 %, R squared 0.158): > 50 µM
- EC90 (SARS-CoV-2 [1]; Severe acute respiratory syndrome coronavirus 2, Pneumocyte, Maximum measured 138.005 %, Minimum measured 85.609 %): > 50 µM
- EC50 (SARS-CoV-2 [1]; pneumocyte): 29.9 µM
- EC90 (SARS-CoV-2 [2]; Severe acute respiratory syndrome coronavirus 2, HeLa-ACE2, Baseline response 0 %, Hill slope -1.838, Maximum measured 112.988 %, Maximum response 100 %, Minimum measured 76.031 %, R squared 0.586): > 50 µM
- EC90 (SARS-CoV-2 [2]; Severe acute respiratory syndrome coronavirus 2, HeLa-ACE2, Baseline response 0 %, Hill slope -2.172, Maximum measured 117.108 %, Maximum response 100 %, Minimum measured 66.698 %, R squared 0.616): > 20 µM
- EC50 (SARS-CoV-2 [2]; hela-ace2): > 50 µM

SMILES: CC(C)[C@@H](Nc1ncnc2[nH]c(C(=O)N[C@H]3CCN(C)C3)cc12)c1ccc2c(c1)S(=O)(=O)CCC2
- EC50 (SARS-CoV-2 [1]; [4]): > 50 µM
- EC90 (SARS-CoV-2 [1]; Severe acute respiratory syndrome coronavirus 2, Pneumocyte, Baseline response 0 %, Hill slope -0.859, Maximum measured 114.501 %, Maximum response 100 %, Minimum measured 59.767 %, R squared 0.551): > 50 µM
- EC50 (SARS-CoV-2 [2]; [5]): > 20 µM
- EC90 (SARS-CoV-2 [2]; Severe acute respiratory syndrome coronavirus 2, HeLa-ACE2, Baseline response 0 %, Hill slope -0.107, Maximum measured 102.123 %, Maximum response 100 %, Minimum measured 84.181 %, R squared 0.016): > 20 µM

SMILES: CNC(=O)c1cc2c(N[C@@H](c3ccc4c(c3)OCCO4)C(C)C)ncnc2[nH]1
- EC50 (SARS-CoV-2 [1]; [4]): > 50 µM
- EC90 (SARS-CoV-2 [1]; Severe acute respiratory syndrome coronavirus 2, Pneumocyte, Maximum measured 153.61 %, Minimum measured 91.144 %): > 50 µM
- EC50 (SARS-CoV-2 [2]; [5]): > 50 µM
- EC90 (SARS-CoV-2 [2]; Severe acute respiratory syndrome coronavirus 2, HeLa-ACE2, Baseline response 0 %, Hill slope -1.825, Maximum measured 114.293 %, Maximum response 100 %, Minimum measured 64.264 %, R squared 0.688): > 50 µM

SMILES: CC(C)[C@H](Nc1ncnc2[nH]c(-c3cnn(CC(N)=O)c3)cc12)c1ccc2c(c1)S(=O)(=O)CCC2
- EC50 (SARS-CoV-2 [1]; [4]): > 50 µM
- EC90 (SARS-CoV-2 [1]; Severe acute respiratory syndrome coronavirus 2, Pneumocyte, Baseline response 0 %, Hill slope -0.706, Maximum measured 119.318 %, Maximum response 100 %, Minimum measured 70.174 %, R squared 0.133): > 50 µM
- EC50 (SARS-CoV-2 [2]; [5]): > 20 µM
- EC90 (SARS-CoV-2 [2]; Severe acute respiratory syndrome coronavirus 2, HeLa-ACE2, Baseline response 0 %, Hill slope 1.066, Maximum measured 108.399 %, Maximum response 100 %, Minimum measured 92.21 %, R squared 0.046): > 20 µM

SMILES: CCNC(=O)c1cc2c(N[C@@H](c3ccc4c(c3)OCCO4)C(C)C)ncnc2[nH]1
- EC50 (SARS-CoV-2 [1]; [4]): 41.1 µM
- EC90 (SARS-CoV-2 [1]; Severe acute respiratory syndrome coronavirus 2, Pneumocyte, Baseline response 0 %, Hill slope -8.576, Maximum measured 136.848 %, Maximum response 100 %, Minimum measured 15.577 %, R squared 0.308): > 50 µM
- EC50 (SARS-CoV-2 [2]; [5]): > 20 µM
- EC90 (SARS-CoV-2 [2]; Severe acute respiratory syndrome coronavirus 2, HeLa-ACE2, Baseline response 0 %, Hill slope -1.909, Maximum measured 113.12 %, Maximum response 100 %, Minimum measured 80.543 %, R squared 0.285): > 20 µM
- EC90 (SARS-CoV-2 [2]; Severe acute respiratory syndrome coronavirus 2, HeLa-ACE2, Maximum measured 94.861 %, Minimum measured 54.623 %): > 20 µM
- EC90 (SARS-CoV-2 [2]; Severe acute respiratory syndrome coronavirus 2, HeLa-ACE2, Maximum measured 122.873 %, Minimum measured 70.184 %): > 20 µM

SMILES: CNCc1cc(-c2cc3c(N[C@@H](c4ccc5c(c4)S(=O)(=O)NCC5)C(C)C)ncnc3[nH]2)co1
- EC50 (SARS-CoV-2 [1]; [4]): 30.7 µM
- EC90 (SARS-CoV-2 [1]; Severe acute respiratory syndrome coronavirus 2, Pneumocyte, Baseline response 0 %, Hill slope -1.273, Maximum measured 102.14 %, Maximum response 100 %, Minimum measured 30.967 %, R squared 0.783): > 50 µM
- EC50 (SARS-CoV-2 [2]; [5]): > 20 µM
- EC90 (SARS-CoV-2 [2]; Severe acute respiratory syndrome coronavirus 2, HeLa-ACE2, Baseline response 0 %, Hill slope -0.236, Maximum measured 99.818 %, Maximum response 100 %, Minimum measured 81.688 %, R squared 0.12): > 20 µM

SMILES: CC(C)[C@@H](Nc1ncnc2[nH]ccc12)c1ccc2c(c1)NC(=O)CO2
- EC50 (SARS-CoV-2 [1]; [4]): > 50 µM
- EC90 (SARS-CoV-2 [1]; Severe acute respiratory syndrome coronavirus 2, Pneumocyte, Maximum measured 145.289 %, Minimum measured 92.172 %): > 50 µM
- EC50 (SARS-CoV-2 [2]; [5]): > 50 µM
- EC90 (SARS-CoV-2 [2]; Severe acute respiratory syndrome coronavirus 2, HeLa-ACE2, Baseline response 0 %, Hill slope -2.239, Maximum measured 123.573 %, Maximum response 100 %, Minimum measured 69.199 %, R squared 0.469): > 50 µM

SMILES: CC(C)[C@H](Nc1ncnc2[nH]c(-c3cnn(C)c3C#N)cc12)c1ccc2c(n1)OCCO2
- EC50 [3, 6]: > 5 µM
- EC90 [3, 6]: > 5 µM
- EC90 (SARS-CoV-2 [2]; Baseline response 0 %, EC90 CI (lower) 0.11 uM, EC90 CI (upper) 0.158 uM, Hill slope -1.629, Maximum measured 105.242 %, Maximum response 100 %, Minimum measured 1.508 %, R squared 0.979): 1.96 µM
- EC50 (SARS-CoV-2 [2]; [5]): 0.819 µM
- EC90 (SARS-CoV-2 [2]; Severe acute respiratory syndrome coronavirus 2, HeLa-ACE2, Baseline response 0 %, EC90 CI (lower) 0.09 uM, EC90 CI (upper) 0.442 uM, Hill slope -1.557, Maximum measured 125.33 %, Maximum response 100 %, Minimum measured 4.425 %, R squared 0.913): 3.36 µM
- EC50 (SARS-CoV-2 [2]; hela-ace2): 0.508 µM

SMILES: CC(C)[C@H](Nc1ncnc2[nH]ccc12)c1ccc2c(c1)S(=O)(=O)CCC2
- EC90 [3]: > 20 µM
- EC50 ([3]; veroe6/tmprss2): 2.42 µM and > 20 µM and > 5 µM
- EC50 (SARS-CoV-2 [2]; [5]): > 20 µM
- EC90 (SARS-CoV-2 [2]; Severe acute respiratory syndrome coronavirus 2, HeLa-ACE2, Maximum measured 129.029 %, Minimum measured 103.942 %): > 20 µM
- EC90 (SARS-CoV-2 [2]; Severe acute respiratory syndrome coronavirus 2, HeLa-ACE2, Maximum measured 158.705 %, Minimum measured 84.767 %): > 20 µM
